Measured values reported in the CheMixHub viscosity set.

Experiment: xn = mol fraction of the nth substance listed

CC(=O)OCCC(C)C + Brc1ccccc1
viscosity [mPa·s], 101 kPa
Details	298.15 K	303.15 K	308.15 K	313.15 K
x1 = 0.0443	1.026	–	0.952	–
x1 = 0.0719	–	1.003	–	0.883
x1 = 0.1494	0.992	–	0.925	–
x1 = 0.1499	–	0.991	–	0.869
x1 = 0.2334	–	0.974	–	0.852
x1 = 0.2513	0.962	–	0.898	–
x1 = 0.3222	–	0.949	–	0.828
x1 = 0.3494	0.933	–	0.875	–
x1 = 0.4137	–	0.921	–	0.801
x1 = 0.4478	0.908	–	0.853	–
x1 = 0.4962	0.895	–	0.842	–
x1 = 0.509	–	0.893	–	0.774
x1 = 0.5517	0.881	–	0.83	–
x1 = 0.6182	–	0.859	–	0.743
x1 = 0.6512	0.857	–	0.811	–
x1 = 0.7358	–	0.823	–	0.711
x1 = 0.7497	0.834	–	0.792	–
x1 = 0.8504	0.812	–	0.773	–
x1 = 0.8603	–	0.787	–	0.677
x1 = 0.9487	0.791	–	0.756	–

CC(=O)OCCC(C)C + C1CCCCC1
viscosity [mPa·s], 101 kPa
Details	298.15 K	308.15 K
x1 = 0.0292	0.862	0.73
x1 = 0.0895	0.813	0.686
x1 = 0.1448	0.776	0.653
x1 = 0.2104	0.74	0.621
x1 = 0.3069	0.7	0.587
x1 = 0.3512	0.687	0.577
x1 = 0.3964	0.676	0.569
x1 = 0.4958	0.661	0.561
x1 = 0.6222	0.661	0.57
x1 = 0.753	0.682	0.603
x1 = 0.9257	0.747	0.69

CCOP(OCC)OCC + CC#N
298.15 K, 101 kPa
Details	viscosity [mPa·s]
x1 = 0.2	0.452
x1 = 0.4	0.512
x1 = 0.6	0.573
x1 = 0.8	0.642

C[NH+](C)C.[Cl-] + CC(=O)CCC(=O)O
101 kPa, x2 = 0.75
Details	viscosity [mPa·s]
293.15 K	74.02
303.15 K	42.25
313.15 K	25.57
323.15 K	17.71

CC(=O)Nc1ccccc1 + CC(=O)O
viscosity [mPa·s], 101.3 kPa
Details	x1 = 0.1	x1 = 0.204	x1 = 0.288
298.15 K	19	30.2	43.6
323.15 K	11.8	18.2	27.7

CC(=O)O.OCCNCCO + CC(=O)O.NCCO
viscosity [mPa·s], 101.3 kPa
Details	x2 = 0.132	x2 = 0.2549	x2 = 0.3688	x2 = 0.4761	x2 = 0.5761	x2 = 0.671	x2 = 0.7597	x2 = 0.8444	x2 = 0.9235
293.15 K	2246	2377	2507	2638	2769	2900	3031	3161	3292
298.15 K	1454	1544	1635	1725	1815	1906	1996	2086	2177
303.15 K	965.1	1025	1084	1144	1204	1263	1323	1383	1442
308.15 K	657.7	698.1	738.5	778.9	819.3	859.7	900	940.4	980.8
313.15 K	459.4	487.4	515.3	543.3	571.3	599.2	627.2	655.1	683.1
318.15 K	328.1	348	367.8	387.6	407.4	427.3	447.1	466.9	486.7
323.15 K	239.3	253.7	268	282.3	296.7	311	325.3	339.7	354

CCCCCCCC/C=C\CCCCCCCCO + CC(C)[C@@H]1CC[C@@H](C)C[C@H]1O
100 kPa, x2 = 0.5
Details	viscosity [mPa·s]
298.13 K	19.79
298.15 K	19.76
303.15 K	14.47
313.13 K	9.11
323.12 K	5.98

CC(=O)OCCC(C)C + CCCCCC
viscosity [mPa·s], 101 kPa
Details	298.15 K	308.15 K
x1 = 0.0521	0.303	0.286
x1 = 0.149	0.328	0.313
x1 = 0.2509	0.358	0.345
x1 = 0.3492	0.391	0.38
x1 = 0.4851	0.445	0.435
x1 = 0.5317	0.466	0.456
x1 = 0.5507	0.475	0.464
x1 = 0.6504	0.526	0.514
x1 = 0.7492	0.585	0.57
x1 = 0.8506	0.655	0.635
x1 = 0.9546	0.74	0.711

CCCCCCCC/C=C\CCCCCCCC(=O)OCC + CCCCCCCCCCCCCCCC
viscosity [mPa·s], 100 kPa
Details	x1 = 0.1	x1 = 0.2	x1 = 0.3	x1 = 0.4	x1 = 0.5	x1 = 0.6	x1 = 0.7	x1 = 0.8	x1 = 0.9
293.15 K	3.595	3.805	4.056	4.336	4.643	4.964	5.309	5.671	6.032
298.15 K	3.195	3.382	3.599	3.849	4.12	4.405	4.704	5.019	5.335
303.15 K	2.852	3.009	3.2	3.422	3.657	3.906	4.163	4.434	4.708
308.15 K	2.56	2.705	2.873	3.065	3.269	3.485	3.71	3.946	4.185
313.15 K	2.314	2.443	2.589	2.755	2.928	3.113	3.306	3.508	3.715
318.15 K	2.1	2.217	2.351	2.504	2.662	2.83	3.004	3.186	3.372
323.15 K	1.917	2.023	2.144	2.28	2.421	2.571	2.723	2.887	3.053

O=C(O)C1CCCCC1 + CCCCCCCCCCO
viscosity [mPa·s], 101 kPa
Details	310 K	320 K
x2 = 0.0377	12.1	8.54
x2 = 0.0625	11.8	8.32
x2 = 0.1776	10.6	7.57
x2 = 0.2753	9.61	6.94
x2 = 0.4103	8.79	6.39
x2 = 0.4952	8.45	6.15
x2 = 0.5659	8.15	5.94
x2 = 0.6678	7.86	5.72
x2 = 0.7657	7.7	5.6
x2 = 0.8462	7.48	5.48
x2 = 0.9063	7.43	5.36
x2 = 0.9593	7.41	5.3

O=P(O)(O)O + CCCCCCCCO
viscosity [mPa·s], 101 kPa
Details	x1 = 0.0266	x1 = 0.0485	x1 = 0.0865	x1 = 0.1055	x1 = 0.149	x1 = 0.1867	x1 = 0.2054	x1 = 0.2487	x1 = 0.2753	x1 = 0.3073
293.15 K	10.8	11.16	14.06	15.07	19.85	30.76	35.99	40.67	45.65	48.76
303.15 K	6.465	7.085	8.327	9.414	11.8	15.79	17.99	21.76	25.77	28
313.15 K	4.823	5.02	5.655	6.55	7.186	8.765	9.786	11.34	14.18	15.19
323.15 K	3.614	3.765	3.995	4.223	4.716	5.176	5.564	6.076	6.308	6.896

CCCOCC(C)OCC(C)O (stereo unspecified) + CCCCCCCO
298.15 K, 101 kPa
Details	viscosity [mPa·s]
x1 = 0.0145	5.795
x1 = 0.0297	5.725
x1 = 0.072	5.58
x1 = 0.1172	5.426
x1 = 0.1578	5.332
x1 = 0.2004	5.236
x1 = 0.2276	5.185
x1 = 0.2594	5.134
x1 = 0.3052	5.067
x1 = 0.4171	4.913
x1 = 0.4502	4.864
x1 = 0.5104	4.775
x1 = 0.5572	4.699
x1 = 0.6014	4.616
x1 = 0.6573	4.51
x1 = 0.7008	4.419
x1 = 0.7589	4.295
x1 = 0.8	4.207
x1 = 0.8512	4.098
x1 = 0.9118	3.985
x1 = 0.9578	3.916
x2 = 0.009	3.879
x2 = 0.0121	3.88

Cl + CCCCCCCO
298.15 K, 101 kPa
Details	viscosity [mPa·s]
x1 = 0.05	6.22
x1 = 0.1	7.02
x1 = 0.15	7.6
x1 = 0.19	8.18
x1 = 0.23	8.66
x1 = 0.26	9.02
x1 = 0.29	9.22
x1 = 0.32	9.3
x1 = 0.34	9.26
x1 = 0.37	9.08
x1 = 0.39	8.86
x1 = 0.41	8.62
x1 = 0.43	8.4
x1 = 0.45	8.2

CCCOCC(C)OCC(C)O (stereo unspecified) + CCCCCO
298.15 K, 101 kPa
Details	viscosity [mPa·s]
x1 = 0.0566	3.194
x1 = 0.1564	3.499
x1 = 0.2104	3.49
x1 = 0.2577	3.486
x1 = 0.3103	3.484
x1 = 0.3524	3.483
x1 = 0.4027	3.481
x1 = 0.4592	3.494
x1 = 0.5107	3.516
x1 = 0.5585	3.545
x1 = 0.6219	3.59
x1 = 0.6862	3.64
x1 = 0.7322	3.684
x1 = 0.7995	3.733
x1 = 0.9032	3.807
x1 = 0.9629	3.849
x2 = 0.0139	3.867

CC(=O)OCCC(C)C + CCCCN
303.15 K, 101 kPa
Details	viscosity [mPa·s]
x2 = 0.2734	0.7086
x2 = 0.4416	0.6996
x2 = 0.5646	0.6833
x2 = 0.6446	0.6711
x2 = 0.7489	0.6443
x2 = 0.8075	0.6212
x2 = 0.8664	0.5934
x2 = 0.8969	0.5868

CCCCCCCC/C=C\CCCCCCCC(=O)OCC + CCCCO
viscosity [mPa·s], 100 kPa
Details	x1 = 0.1	x1 = 0.2	x1 = 0.3	x1 = 0.4	x1 = 0.5	x1 = 0.6	x1 = 0.7	x1 = 0.8	x1 = 0.9
293.15 K	3.187	3.558	3.946	4.315	4.68	5.024	5.358	5.682	6.011
298.15 K	2.818	3.143	3.481	3.808	4.131	4.437	4.732	5.013	5.31
303.15 K	2.491	2.782	3.08	3.371	3.649	3.918	4.175	4.419	4.678
308.15 K	2.217	2.48	2.746	3.002	3.25	3.486	3.713	3.931	4.16
313.15 K	1.983	2.223	2.46	2.683	2.897	3.103	3.3	3.49	3.691
318.15 K	1.776	1.998	2.214	2.421	2.62	2.81	2.991	3.165	3.35
323.15 K	1.6	1.806	2.002	2.192	2.371	2.543	2.707	2.865	3.032

CC(=O)OCCC(C)C + CCCCOC(C)=O
viscosity [mPa·s], 101 kPa
Details	x1 = 0.2	x1 = 0.4	x1 = 0.6	x1 = 0.8
293.15 K	0.75	0.776	0.802	0.831
313.15 K	0.575	0.592	0.611	0.629

CCCCCCCC/C=C\CCCCCCCC(=O)OCC + CCCO
Details	viscosity [mPa·s]
303.15 K, 101 kPa, x2 = 0.2	4.435

CCCOCC(C)OCC(C)O (stereo unspecified) + CCCO
298.15 K, 101 kPa
Details	viscosity [mPa·s]
x1 = 0.0061	1.977
x1 = 0.0137	1.998
x1 = 0.028	2.036
x1 = 0.0763	2.163
x1 = 0.1234	2.28
x1 = 0.1783	2.416
x1 = 0.2361	2.556
x1 = 0.3132	2.74
x1 = 0.3684	2.862
x1 = 0.4279	2.985
x1 = 0.4905	3.102
x1 = 0.5267	3.164
x1 = 0.5714	3.239
x1 = 0.6634	3.388
x1 = 0.7271	3.495
x1 = 0.8017	3.617
x1 = 0.8701	3.728
x1 = 0.9055	3.78
x1 = 0.9497	3.837
